{
  "source": "patent US20110038885A1",
  "about": "“CHEMOKINE ANALOGS” (priority 2007, published 2011)",
  "key": {"MCP-1": {"tested_on": "MCP-1", "test": "In vitro chemotaxis (trans-well migration) v MCP-1", "format": "cell-based, human", "outline": "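Human THP-1 monocytes (10^4-10^6) with agent at varying concentrations in upper trans-well chamber; IL-8 or MCP-1 in lower chamber at a migration-inducing concentration, 37° C for e.g. 4 hours. Migrated cells quantified by MTT (595 nm) against a THP-1 standard curve; cytotoxicity and non-chemokine chemoattractant controls run.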"}, "IL-8": {"tested_on": "IL-8", "test": "In vitro chemotaxis, inhibition v IL-8", "format": "cell-based, human", "parameters": "concentration or dose not given beside the values", "procedure": "To determine whether an agent inhibits a chemokine-induced activity, such as macrophage recruitment, varying amounts of the agent are mixed with cells in the presence of a known chemoattractant. For example, a range of known concentrations of an agent, e.g., a chemokine peptide, is incubated with a defined number (e.g., 10^4-10^6) of human THP-1 monocyte cells in individual wells of the top compartment of a trans-well plate. Chemokine, at a concentration known to cause significant migration of THP-1 cells in the trans-well migration assay, is placed in the lower compartment of a trans-well plate. Cells are then incubated at 37° C. for a period sufficient to allow migration, e.g., 4 hours. After incubation, the cells are gently removed from the top of the filter with a pipette, 20 μl of 20 mM EDTA in simple PBS is added into each top well, and incubated for 20 minutes at 4° C. The filter is carefully flushed with media using a gentle flow, and removed. A standard curve consisting of a two-fold dilution series of THP-1 cells (in 29 μl) is placed to accurately quantify the number of cells that have migrated. Migrated cells are stained with 3 μl of MTT stock dye solution which is added directly into each well (5 mg/ml in RPMI-1640 without phenol red) (Sigma Chemical Co., St. Louis, Mo., USA) and incubated at 37° C. for 4 hours. The media is carefully aspirated from each well, and the converted dye is solubilized by 20 μl of DMSO. Absorbance of converted dye is measured at a wavelength of 595 nm using an ELISA plate reader. The number of migrated cells in each well is then determined by interpolation of the standard curve (see also Imai et al., J. Biol. Chem., 272:15036, 1997). Any method suitable for counting cells can be used, for example, counting with a hemocytometer, incubation of the cells with MTT (see above), or FACS analysis. A negative control assay is also performed, using TGFβ or another non-chemokine chemoattractant (e.g., IL1β or TNFα). To assess whether the agent is cytotoxic, the same concentrations of agent are incubated with THP-1 cells. Agents which 1) are not cytotoxic at levels which inhibit migration, 2) are ineffective at inhibiting the negative control-induced migration, and 3) reduce or inhibit chemokine-induced THP-1 migration, are agents which fall within the scope of the invention."}},
  "note": "pEC50: −log10 of the molar value. Bridge positions count the residues as written; N and C are the ends. Square brackets hold non-standard residues; d marks the D form. Peptide text beside a SMILES is read from it. * marks the point of attachment. Octanoyl = CCCCCCCC(=O)*; Dab = NCC[C@H](N)C(=O)O; Aoc = NCCCCCCCC(=O)O",
  "data": [
    {"smiles": "CC[C@H](C)[C@@H]1NC(=O)[C@H](Cc2c[nH]c3ccccc23)NC(=O)[C@H](CCCCN)NC(=O)[C@H](CCC(N)=O)NC(=O)[C@H](CCCCN)NC(=O)[C@@H]2CCCN2C(=O)[C@H](CC(=O)O)NC(=O)[C@H](CC(C)C)NC(=O)[C@@H](NC(C)=O)CSSC[C@@H](C(=O)N[C@@H](CCN)C(N)=O)NC(=O)[C@H](CCC(N)=O)NC1=O", "note": "[Example 18, Ac-c(Cys-Leu-Asp-Pro-Lys-Gln-Lys-Trp-Ile-Gln-Cys)-Dab-NH2] (Ac-CLDPKQKWIQC[Dab]-NH2; disulfide 1-11)", "values": [
      {"measurement": "pEC50", "setting": "MCP-1", "result": 7.70},
      {"measurement": "v IL-8 inhibition (%)", "setting": "IL-8", "result": 103.5, "unit": "%"}
    ]},
    {"smiles": "CC[C@@H](C)[C@H]1NC(=O)[C@@H](CCC(N)=O)NC(=O)[C@H](N)CSSC[C@H](C(=O)N[C@@H](C(=O)N[C@H](CCC(=O)O)C(=O)NCCCCCCCC(=O)O)C(C)C)NC(=O)[C@@H](CC(C)C)NC(=O)[C@@H](CC(=O)O)NC(=O)[C@H]2CCCN2C(=O)[C@@H](CCCCN)NC(=O)[C@@H](CCC(N)=O)NC(=O)[C@@H](CCCCN)NC(=O)[C@@H](Cc2c[nH]c3ccccc23)NC1=O", "note": "[Example 141, c(D-Cys-D-Gln-D-Ile-D-Trp-D-Lys-D-Gln-D-Lys-D-Pro-D-Asp-D-Leu-D-Cys)-D-Val-D-Glu-Aoc-OH] (H-[dC][dQ][dI][dW][dK][dQ][dK][dP][dD][dL][dC][dV][dE][Aoc]-OH; disulfide 1-11)", "values": [
      {"measurement": "pEC50", "setting": "MCP-1", "result": 6.48},
      {"measurement": "v IL-8 inhibition (%)", "setting": "IL-8", "result": 27.5, "unit": "%"}
    ]},
    {"smiles": "CCCCCCCC(=O)NCCCC[C@@H]1NC(=O)[C@@H](CC(C)C)NC(=O)[C@@H](CC(=O)O)NC(=O)[C@H]2CCCN2C(=O)[C@@H](CCCCN)NC(=O)[C@@H](CCC(N)=O)NC(=O)[C@@H](CCCCN)NC(=O)[C@@H](Cc2c[nH]c3ccccc23)NC(=O)[C@@H]([C@H](C)CC)NC(=O)[C@@H](CCC(N)=O)NC(=O)[C@H](N)CSSC[C@H](C(N)=O)NC1=O", "note": "[Example 153, c(D-Cys-D-Gln-D-Ile-D-Trp-D-Lys-D-Gln-D-Lys-D-Pro-D-Asp-D-Leu-Lys(Nε-octanoyl)-D-Cys)-NH2] (H-[dC][dQ][dI][dW][dK][dQ][dK][dP][dD][dL]K(Octanoyl)[dC]-NH2; disulfide 1-12)", "values": [
      {"measurement": "pEC50", "setting": "MCP-1", "result": "< 6.00"},
      {"measurement": "v IL-8 inhibition (%)", "setting": "IL-8", "result": 4.1, "unit": "%"}
    ]},
    {"smiles": "CCCCCCCC(=O)NCCCC[C@H](NC(=O)[C@H]1CSSC[C@@H](N)C(=O)N[C@H](CCC(N)=O)C(=O)N[C@H]([C@H](C)CC)C(=O)N[C@H](Cc2c[nH]c3ccccc23)C(=O)N[C@H](CCCCN)C(=O)N[C@H](CCC(N)=O)C(=O)N[C@H](CCCCN)C(=O)N2CCC[C@@H]2C(=O)N[C@H](CC(=O)O)C(=O)N[C@H](CC(C)C)C(=O)N1)C(=O)O", "note": "[Example 149, c(D-Cys-D-Gln-D-Ile-D-Trp-D-Lys-D-Gln-D-Lys-D-Pro-D-Asp-D-Leu-D-Cys)-Lys(Nε-octanoyl)-OH] (H-[dC][dQ][dI][dW][dK][dQ][dK][dP][dD][dL][dC]K(Octanoyl)-OH; disulfide 1-11)", "values": [
      {"measurement": "pEC50", "setting": "MCP-1", "result": 7.18},
      {"measurement": "v IL-8 inhibition (%)", "setting": "IL-8", "result": 106.2, "unit": "%"}
    ]},
    {"smiles": "CC[C@@H](C)[C@H]1NC(=O)[C@@H](CCC(N)=O)NC(=O)[C@H](N)CSSC[C@H](C(=O)N[C@H](C(=O)N[C@@H](CCC(=O)O)C(=O)NCCCCCCCC(=O)O)[C@@H](C)CC)NC(=O)[C@@H](CC(C)C)NC(=O)[C@@H](CC(=O)O)NC(=O)[C@H]2CCCN2C(=O)[C@@H](CCCCN)NC(=O)[C@@H](CCC(N)=O)NC(=O)[C@@H](CCCCN)NC(=O)[C@@H](Cc2c[nH]c3ccccc23)NC1=O", "note": "[Example 140, c(D-Cys-D-Gln-D-Ile-D-Trp-D-Lys-D-Gln-D-Lys-D-Pro-D-Asp-D-Leu-D-Cys)-Ile-Glu-Aoc-OH] (H-[dC][dQ][dI][dW][dK][dQ][dK][dP][dD][dL][dC]IE[Aoc]-OH; disulfide 1-11)", "values": [
      {"measurement": "pEC50", "setting": "MCP-1", "result": 6.40},
      {"measurement": "v IL-8 inhibition (%)", "setting": "IL-8", "result": 43.4, "unit": "%"}
    ]},
    {"smiles": "CC[C@H](C)[C@@H]1NC(=O)[C@H](Cc2c[nH]c3ccccc23)NC(=O)[C@@H](NC(=O)[C@@H](N)CCCCN)CSSC[C@@H](C(N)=O)NC(=O)[C@H](CCC(N)=O)NC1=O", "note": "[Example 51, Lys-c(Cys-Trp-Ile-Gln-Cys)-NH2] (H-KCWIQC-NH2; disulfide 2-6)", "values": [
      {"measurement": "pEC50", "setting": "MCP-1", "result": 7.10},
      {"measurement": "v IL-8 inhibition (%)", "setting": "IL-8", "result": 115.9, "unit": "%"}
    ]}
  ]
}
